Measurements: patent US10336762B2 (priority 2017, dated 2019)
pEC50, pIC50: −log10 of the molar value. Where two headings read alike, the source gives them in different places.

Key:
IRAK4 enzyme = IRAK4 enzyme (Homo sapiens (Human), UniProt Q9NWZ3); test: biochemical; type: biochemical; settings: IRAK4 enzyme, 500 μM ATP
TNFα = test: cells; type: cell-based, human; settings: LPS-stimulated human monocytes, read-out: EC50 TNF
[1] = Homo sapiens, Monocyte, TNFα content
[2] = Homo sapiens, Monocyte, TNFα by TR-FRET

Chain of IRAK4 enzyme (Q9NWZ3 whole entry): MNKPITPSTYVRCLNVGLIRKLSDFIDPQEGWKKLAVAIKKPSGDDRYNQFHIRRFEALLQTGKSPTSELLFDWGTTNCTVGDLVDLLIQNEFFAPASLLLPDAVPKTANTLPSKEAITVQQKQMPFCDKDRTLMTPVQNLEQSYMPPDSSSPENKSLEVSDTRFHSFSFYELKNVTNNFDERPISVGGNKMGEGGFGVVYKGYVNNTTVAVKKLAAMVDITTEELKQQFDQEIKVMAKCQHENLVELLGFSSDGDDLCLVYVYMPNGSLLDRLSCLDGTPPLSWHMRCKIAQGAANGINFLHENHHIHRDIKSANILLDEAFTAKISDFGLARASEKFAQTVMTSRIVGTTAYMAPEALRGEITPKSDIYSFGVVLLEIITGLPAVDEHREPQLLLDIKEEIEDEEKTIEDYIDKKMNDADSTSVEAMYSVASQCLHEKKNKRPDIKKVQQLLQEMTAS

Row | SMILES | pIC50 (IRAK4 enzyme; TR-FRET) | pEC50 (TNFα; [1]) | pEC50 (TNFα; [2]) | pIC50 (IRAK4 enzyme; TR-FRET (HTRF)) | pEC50 (TNFα; TNFα content)
1 | CC(C)(O)[C@H](F)CNC(=O)c1cnc(-c2ccc3cc(C#N)cnn23)cc1Nc1cccc(-c2cnc[nH]2)c1 [Example 219, (R)-4-((3-(1H-imidazol-5-yl)phenyl)amino)-6-(3-cyanopyrrolo[1,2-b]pyridazin-7-yl)-N-(2-fluoro-3-hydroxy-3-methylbutyl)nicotinamide] | 9.00 | 6.68 | – | – | –
2 | CC(C)(O)[C@H](F)CNC(=O)c1cnc(-c2ccc3cc(C#N)cnn23)cc1Nc1cccnc1 [Example 4, (R)-6-(3-cyanopyrrolo[1,2-b]pyridazin-7-yl)-N-(2-fluoro-3-hydroxy-3-methylbutyl)-4-(pyridin-3-ylamino)nicotinamide] | > 9.00 | 7.48 | – | – | –
3 | N#Cc1cnn2c(-c3cc(NC45CCC(O)(CC4)CC5)c(C(=O)NCC(=O)c4ccccc4)cn3)ccc2c1 [Example 811, 6-(3-cyanopyrrolo[1,2-b]pyridazin-7-yl)-4-((4-hydroxybicyclo[2.2.2]octan-1-yl)amino)-N-(2-oxo-2-phenylethyl) nicotinamide] | > 9.00 | – | 7.49 | – | –
4 | COC(=O)N1CCC(n2cc(Nc3cc(-c4ccc5cc(C#N)cnn45)ncc3C(=O)NC[C@@H](F)C(C)(C)O)cn2)CC1 [Example 235, (R)-methyl 4-(4-((2-(3-cyanopyrrolo[1,2-b]pyridazin-7-yl)-5-((2-fluoro-3-hydroxy-3-methylbutyl)carbamoyl)pyridin-4-yl)amino)-1H-pyrazol-1-yl)piperidine-1-carboxylate] | 8.70 | 6.78 | – | – | –
5 | COC(=O)NC12CCC(Nc3cc(-c4ccc5cc(C#N)cnn45)ncc3C(=O)NCC#N)(CC1)CC2 [Example 267, methyl (4-((5-((cyanomethyl)carbamoyl)-2-(3-cyanopyrrolo[1,2-b]pyridazin-7-yl)pyridin-4-yl)amino)bicyclo[2.2.2]octan-1-yl)carbamate] | > 9.00 | 7.72 | – | – | –
6 | CN(C)C(=O)OC12CCC(Nc3cc(-c4ccc5cc(C#N)cnn45)ncc3C(=O)NC[C@@H](F)C(C)(C)O)(CC1)CC2 [Example 411, (R)-4-((2-(3-cyano-pyrrolo[1,2-b]pyridazin-7-yl)-5-((2-fluoro-3-hydroxy-3-methylbutyl)carbamoyl)pyridin-4-yl)amino)bicyclo[2.2.2] octan-1-yl dimethylcarbamate] | – | 7.21 | – | 8.70 | –
7 | CC(C)(O)[C@H](F)CNC(=O)c1cnc(-c2ccc3cc(C#N)cnn23)cc1Nc1cnc(C2CC2)nc1 [Example 666, (R)-6-(3-cyanopyrrolo[1,2-b]pyridazin-7-yl)-4-((2-cyclopropylpyrimidin-5-yl)amino)-N-(2-fluoro-3-hydroxy-3-methylbutyl) nicotinamide] | – | 7.52 | – | > 9.00 | –
8 | CC(C)Nc1cc(-c2ccc3cc(C#N)cnn23)ncc1C(=O)NC1CCC(NC(=O)C(C)(C)O)CC1 (stereo not shown) [Example 135, 6-(3-cyanopyrrolo[1,2-b]pyridazin-7-yl)-N-((1r,4r)-4-(2-hydroxy-2-methylpropanamido)cyclo-hexyl)-4-(isopropylamino) nicotinamide] | 8.70 | 6.89 | – | – | –
9 | COc1ccc(Nc2cc(-c3ccc4cc(C#N)cnn34)ncc2C(=O)NC[C@@H](F)C(C)(C)O)cn1 [Example 602, (R)-6-(3-cyanopyrrolo[1,2-b]pyridazin-7-yl)-N-(2-fluoro-3-hydroxy-3-methylbutyl)-4-((6-methoxy-pyridin-3-yl)amino) nicotinamide] | – | 7.15 | – | > 9.00 | –
10 | CC(C)(O)[C@H](F)CNC(=O)c1cnc(-c2ccc3cc(C#N)cnn23)cc1NC1CC2CCC(C1)N2S(C)(=O)=O (stereo partly drawn) [Example 29, 6-(3-cyanopyrrolo[1,2-b]pyridazin-7-yl)-N-((R)-2-fluoro-3-hydroxy-3-methylbutyl)-4-(((1R,3s,5S)-8-(methylsulfonyl)-8-azabicyclo[3.2.1]octan-3-yl)amino)nicotinamide] | > 9.00 | – | – | – | 7.00
11 | CC1(F)CN(C(=O)C23CCC(Nc4cc(-c5ccc6cc(C#N)cnn56)ncc4C(=O)NC[C@@H](F)C(C)(C)O)(CC2)CC3)C1 [Example 394, (R)-6-(3-cyanopyrrolo[1,2-b]pyridazin-7-yl)-N-(2-fluoro-3-hydroxy-3-methylbutyl)-4-((4-(3-fluoro-3-methylazetidine-1-carbonyl)bicyclo[2.2.2]octan-1-yl)amino) nicotinamide] | 9.00 | 7.17 | – | – | –
12 | CC(C)Nc1cc(-c2ccc3cc(C#N)cnn23)ncc1C(=O)NCCS(C)(=O)=O [Example 92, 6-(3-cyanopyrrolo[1,2-b]pyridazin-7-yl)-4-(isopropylamino)-N-(2-(methylsulfonyl)ethyl) nicotinamide] | 8.70 | 7.10 | – | – | –
13 | COC(=O)N[C@H]1CC[C@H](Nc2cc(-c3ccc4cc(C#N)cnn34)ncc2C(=O)NC[C@@H](F)C(C)(C)OC(C)=O)CC1 [Example 293, (R)-4-(6-(3-cyanopyrrolo[1,2-b]pyridazin-7-yl)-4-(((1r,4R)-4-((methoxycarbonyl)amino)cyclohexyl)amino)nicotinamido)-3-fluoro-2-methylbutan-2-yl acetate] | 9.00 | 7.31 | – | – | –
14 | CNC(=O)c1cnc(-c2ccc3cc(C#N)cnn23)cc1NC12CCC(NC(=O)OC)(CC1)CC2 [Example 486, methyl (4-((2-(3-cyano-pyrrolo[1,2-b]pyridazin-7-yl)-5-(methylcarbamoyl)pyridin-4-yl)amino)bicyclo[2.2.2]octan-1-yl)carbamate] | – | 7.19 | – | 9.00 | –
15 | CN(C(=O)CNC(=O)c1cnc(-c2ccc3cc(C#N)cnn23)cc1NC12CCC(O)(CC1)CC2)C(C)(C)C [Example 814, N-(2-(tert-butyl(methyl)amino)-2-oxoethyl)-6-(3-cyanopyrrolo[1,2-b]pyridazin-7-yl)-4-((4-hydroxybicyclo[2.2.2]octan-1-yl)amino) nicotinamide] | > 9.00 | – | 7.40 | – | –
16 | CNC(=O)O[C@H]1C[C@H](Nc2cc(-c3ccc4cc(C#N)cnn34)ncc2C(=O)NC[C@@H](F)C(C)(C)O)C1 [Example 162, (1R,3r)-3-((2-(3-cyano-pyrrolo[1,2-b]pyridazin-7-yl)-5-(((R)-2-fluoro-3-hydroxy-3-methylbutyl)carbamoyl)pyridin-4-yl)amino)cyclobutyl methylcarbamate] | 6.42 | < 5.00 | – | – | –
17 | Cc1cc(Nc2cc(-c3ccc4cc(C#N)cnn34)ncc2C(=O)NC[C@@H](F)C(C)(C)O)cnc1F [Example 187, (R)-6-(3-cyanopyrrolo[1,2-b]pyridazin-7-yl)-N-(2-fluoro-3-hydroxy-3-methylbutyl)-4-((6-fluoro-5-methylpyridin-3-yl)amino) nicotinamide] | 9.00 | 6.82 | – | – | –
18 | CC(C)Nc1cc(-c2ccc3cc(C#N)cnn23)ncc1C(=O)NC1CC2(C1)CC(C(C)(C)O)C2 (stereo not shown) [Example 5, 6-(3-cyanopyrrolo[1,2-b]pyridazin-7-yl)-N-(6-(2-hydroxypropan-2-yl)spiro[3.3]heptan-2-yl)-4-(isopropylamino)nicotinamide] | > 9.00 | 6.68 | – | – | –
19 | CC(C)Nc1cc(-c2ccc3cc(C#N)cnn23)ncc1C(=O)NC1CS(=O)(=O)C1 [Example 71, 6-(3-cyanopyrrolo[1,2-b]pyridazin-7-yl)-N-(1,1-dioxidothietan-3-yl)-4-(isopropylamino) nicotinamide] | 8.05 | 6.53 | – | – | –
20 | COCCNc1cc(-c2ccc3cc(C#N)cnn23)ncc1C(=O)NC[C@@H](F)C(C)(C)O [Example 100, (R)-6-(3-cyanopyrrolo[1,2-b]pyridazin-7-yl)-N-(2-fluoro-3-hydroxy-3-methylbutyl)-4-((2-methoxyethyl)amino) nicotinamide] | 8.40 | 6.71 | – | – | –
21 | CC(C)OC(=O)NC[C@H]1C[C@H](Nc2cc(-c3ccc4cc(C#N)cnn34)ncc2C(=O)NC[C@@H](F)C(C)(C)O)C1 [Example 539, isopropyl (((1R,3r)-3-((2-(3-cyanopyrrolo[1,2-b]pyridazin-7-yl)-5-(((R)-2-fluoro-3-hydroxy-3-methylbutyl)carbamoyl)pyridin-4-yl)amino)cyclo-butyl)methyl)carbamate] | – | 7.92 | – | > 9.00 | –
22 | Cc1ncc(Nc2cc(-c3ccc4cc(C#N)cnn34)ncc2C(=O)NC[C@@H](F)C(C)(C)O)cn1 [Example 595, (R)-6-(3-cyano-pyrrolo[1,2-b]pyridazin-7-yl)-N-(2-fluoro-3-hydroxy-3-methylbutyl)-4-((2-methylpyrimidin-5-yl)amino)nicotinamide] | – | 6.97 | – | > 9.00 | –
23 | CC(C)(O)[C@H](F)CNC(=O)c1cnc(-c2ccc3cc(C#N)cnn23)cc1N[C@H]1C[C@H](COC(=O)NCC(F)F)C1 [Example 736, ((1R,3r)-3-((2-(3-cyano-pyrrolo[1,2-b]pyridazin-7-yl)-5-(((R)-2-fluoro-3-hydroxy-3-methylbutyl)carbamoyl)pyridin-4-yl)amino)cyclobutyl) methyl (2,2-difluoro-ethyl)carbamate] | – | 7.32 | – | > 9.00 | –
24 | CC(C)(O)[C@H](F)CNC(=O)c1cnc(-c2ccc3cc(C#N)cnn23)cc1Nc1ccc2c(c1)CNC2 [Example 863, (R)-6-(3-cyanopyrrolo[1,2-b]pyridazin-7-yl)-N-(2-fluoro-3-hydroxy-3-methylbutyl)-4-(isoindolin-5-ylamino)nicotinamide] | > 9.00 | – | 7.13 | – | –
25 | COCc1nnc(NC[C@H]2C[C@H](Nc3cc(-c4ccc5cc(C#N)cnn45)ncc3C(=O)NC[C@@H](F)C(C)(C)O)C2)o1 [Example 697, 6-(3-cyanopyrrolo[1,2-b]pyridazin-7-yl)-N-((R)-2-fluoro-3-hydroxy-3-methylbutyl)-4-(((1r,3R)-3-(((5-(methoxymethyl)-1,3,4-oxadiazol-2-yl)amino)methyl)cyclobutyl)amino) nicotinamide] | – | 6.77 | – | 9.00 | –
26 | CC(C)(O)[C@H](F)CNC(=O)c1cnc(-c2ccc3cc(C#N)cnn23)cc1NC1CC(Cc2cnco2)C1 (single isomer, unassigned) [Example 640] | – | – | – | 9.00 | 6.93
